Test results: patent publication US20230285570A1, “THERAPEUTICALLY USEFUL CURE-PRO MOLECULES FOR E3 LIGASE MEDIATED DEGRADATION OF PROTEINS, AND METHODS OF MAKING AND USING THEM” (CORNELL UNIVERSITY, priority 2020, published 2023)
“Also recorded” adds a separate entry of the source.

What was measured:
Type in all cases: cell-based
[1] = molecular target: T1, c-MYC (Homo sapiens, UniProt P01106); assay: CURE-PRO-mediated c-MYC degradation in MCF7 cells, Western blot; design: endogenous in cells
Experimental: (§1) Namalwa, Ramosm HeLa, MCF7, or HT29 HCT116 cells (2.5-3×10^6) were treated for 24 hours with the indicated compounds solubilized in DMSO. The cells were washed in ice-cold PBS and were then lysed in RIPA lysis buffer (150 mM NaCl, 5 mM EDTA, 1% NP-40, 0.5% sodium deoxycholate, 0.1% SDS, 50 mM Tris, pH 8.0.) with Roche protease inhibitor complete cocktail and phosphatase inhibitors (10 mM sodium fluoride, 10 mM sodium pyrophosphate, 1 mM sodium orthovanadate and 20 mM β-glycerophosphate). The total protein concentrations were determined by Bradford Protein Assay (Pierce) and 10-20 μg of protein was loaded onto 4-15% Tris-Glycine gradient gels (Biorad). After standard gel electrophoresis, the separated proteins were transferred to PVDF membrane by wet transfer. The immunoblots were then blocked for 1 hour in 5% skim milk in TBST or 5% BSA in TBST, according to manufacturer's instructions, before an overnight incubation at 4° C. with indicated antibodies and membranes. Membranes were then incubated with the appropriate horseradish peroxidase-conjugated secondary antibodies (1:5,000 dilution) for 1 h at room temperature and the bands were visualized using the Clarity Max Western ECL Substrate (Biorad) and the ChemiDoc Imaging System (Biorad). Signal was detected with ECL Western Blotting Substrate (Pierce) and X-ray film processed with a Konica SRX-101 X-ray film processor or captured by Bio-Rad's Chemidoc Imaging system.
MCF7 cells (3×10^6) were treated for 24 h with the compounds solubilized in DMSO. Compounds were added at 100 nM-10 μM each. Standardized protein samples were electrophoresed and imaged as described in the immunoblotting section above. c-MYC monomer, MYC-E33 (FIG. 99) (a 10058-F4 derivatives comprising boronic acid linkers), and VHL ligands, 8304 and 8305 (VH-298 derivatives comprising diol linkers) were combined in a 1:1 ratio.

[2] = molecular target: T1, c-MYC; assay: CURE-PRO-mediated c-MYC degradation in HCT1116 cells, Western blot or WES; design: HT29 cells (2.5×10^6) were treated for 24 h with the compounds solubilized in DMSO; endogenous in cells; host or cells: HT29; conditions: 1:1 with MDM2 ligand 8310, HCT1116, 24 h, 10 nM-10 μM each
[3] = molecular target: T1, c-MYC; assay: Summary of C-MYC degradation by CURE-PRO pairs, estimated from Western Blot or WES; design: endogenous in cells; host or cells: HT29; conditions: Table 11, aromatic 1,2-diol MYC ligand + 8310
Procedure, shortened: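 Degradation read-out from immunoblot with ECL, or WES capillary electrophoresis with HRP detection, of RIPA lysates. Cells (Namalwa, Ramos, HeLa, MCF7, HT29 or HCT116) were exposed to DMSO-solubilized compounds for 24 h; a check mark marks 30% to 70% or higher degradation.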

[4] = molecular target: T1, c-MYC; assay: CURE-PRO-mediated c-MYC degradation in HT29 cells, Western blot; design: endogenous in cells; host or cells: HT29
Experimental: as §1
HT29 cells (2.5×10^6) were treated for 24 h with the compounds solubilized in DMSO. Compounds were added at 10 nM-10 μM each, as indicated in the description of the figures. Standardized protein samples were electrophoresed and imaged as described in the immunoblotting section above. c-MYC monomers (10058-F4 derivatives comprising catechol linkers), and CRBN ligands, 8048 and 8049 (pomalidomide derivatives comprising boronic acid linkers) combined in a 1:1 ratio.
HT29 cells (2.5×10^6) were treated for 24 h with the compounds solubilized in DMSO. Compounds were added at 100 nM-10 μM each.
(§2) HT29 cells (2.5×10^6) were treated for 24 h with the compounds solubilized in DMSO. Compounds were added at 100 nM-10 μM each. Standardized protein samples were electrophoresed and imaged as described in the immunoblotting section above. c-MYC monomer, MYC-E1, (a 10058-F4 derivative comprising boronic acid linkers), and CRBN ligands, 8046, 8047 and 8066 (pomalidomide derivatives comprising diol linkers) combined in a 1:1 ratio.
as §2, with “monomers, MYC-E6 (FIG. 90), MYC-E10 (FIG. 91), and MYC-E16 (FIG. 92) (10074-G5 derivatives” for “monomer, MYC-E1, (a 10058-F4 derivative”
(§3) HT29 cells (2.5×10^6) were treated for 24 h with the compounds solubilized in DMSO. Compounds were added at 10 nM-10 μM each. Standardized protein samples were electrophoresed and imaged as described in the immunoblotting section above. c-MYC monomer, MYC-N16 (FIG. 93) (10074-G5 derivatives comprising diol linkers), and VHL ligands, 8297 and 8298 (VH-298 derivatives comprising boronic acid linkers) were combined in a 1:1 ratio.
as §3, with “monomers, MYC-E7” for “monomer, MYC-N16”, “96), MYC-E10 (FIG. 97), and MYC-E17 (FIG. 98),” for “93)”, “boronic acid” for “diol”, “diol” for “boronic acid”

[5] = molecular target: T1, c-MYC; assay: CURE-PRO-mediated c-MYC degradation in HCT1116 cells, Western blot or WES; design: endogenous in cells; host or cells: HT29; conditions: 1:1 with MDM2 ligand 8312, HCT1116, 24 h, 10 nM-10 μM each
Experimental: as §1
WES Simple analysis was performed on WES system (ProteinSimple-Biotechne) according to the manufacturer's instructions. Total protein concentrations of cell lysates were determined by the Pierce BCA kit (Thermo Fisher). 3 μL of 0.3 μg/μL of the protein lysate was loaded onto a 12- to 230-kDa WES assay plate (ProteinSimple) where 300 nL sample was withdrawn through a capillary, subjected to electrophoretic separation of proteins by size, and followed by the simultaneous, HRP-based detection of proteins using the Anti-Rabbit Detection Module (Proteinsimple: #DM-001). The electropherograms were checked then the automatic peak detection was manually corrected if it was required.
HCT1116 cells (2.5×10^6) were treated for 24 h with the compounds solubilized in DMSO. Compounds were added at 10 nM-10 μM each. Standardized protein samples were electrophoresed and imaged as described in the immunoblotting or WES (Proteinsimple) sections above. c-MYC monomers, MYC-N20 (FIG. 100, a 10074-G5 derivative comprising diol linkers), and MYC-N10 (FIG. 101), MYC-N6 (FIG. 102), and MYC-N9 (FIG. 103) (10058-F4 derivatives comprising diol linkers), and MDM2 ligands, 8310 and 8312 (Nutlin 3a derivatives comprising boronic acid linkers) were combined in a 1:1 ratio.
HCT1116 cells (2.5×10^6) were treated for 24 h with the compounds solubilized in DMSO. Compounds were added at 1 μM-10 μM each.

T1 sequence (P01106 whole entry): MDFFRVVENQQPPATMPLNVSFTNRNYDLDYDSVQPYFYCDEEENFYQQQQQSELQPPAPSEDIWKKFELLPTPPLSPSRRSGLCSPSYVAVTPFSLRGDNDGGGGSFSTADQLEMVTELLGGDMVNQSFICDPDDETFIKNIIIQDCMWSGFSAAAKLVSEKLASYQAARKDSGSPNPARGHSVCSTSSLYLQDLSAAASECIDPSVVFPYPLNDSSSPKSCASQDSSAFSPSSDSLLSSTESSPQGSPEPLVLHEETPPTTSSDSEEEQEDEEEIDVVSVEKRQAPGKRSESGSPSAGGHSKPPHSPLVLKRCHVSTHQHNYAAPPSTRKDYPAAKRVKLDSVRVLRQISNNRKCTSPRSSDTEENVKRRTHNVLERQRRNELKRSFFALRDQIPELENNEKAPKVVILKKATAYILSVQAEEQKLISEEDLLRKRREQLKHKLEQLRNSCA

| c-MYC degradation ([1]; 1:1 with VHL ligand 8304, MCF7, 24 h, 100 nM-10 μM each) | c-MYC degradation ([1]; 1:1 with VHL ligand 8305, MCF7, 24 h, 100 nM-10 μM each) | c-MYC degradation ([1]; c-MYC monomer alone, MCF7, 24 h, 100 nM-10 μM) | c-MYC degradation ([4]; c-MYC monomer alone, HT29, 24 h, 10 nM-10 μM) | Compound | c-MYC degradation [2] | Degradation of C-MYC, combination with MDM2 ligand 8310 [3] | c-MYC degradation ([4]; 1:1 with CRBN ligand 8048, HT29, 24 h, 10 nM-10 μM each) | c-MYC degradation ([4]; 1:1 with CRBN ligand 8049, HT29, 24 h, 10 nM-10 μM each) | c-MYC degradation [5] |
| --- | --- | --- | --- | --- | --- | --- | --- | --- | --- |
| caused partial degradation of c-MYC | no loss of c-MYC protein was observed | no loss of c-MYC protein was observed | – | CCc1ccc(/C=C2\SC(=O)N(CCNC(=O)c3ccc(B(O)O)cc3)C2=O)cc1 [MYC-E33] | – | – | – | – | – |
| – | – | – | there is no degradation of c-MYC | CCc1ccc(/C=C2\SC(=O)N(CCOCCNC(=O)c3ccc(O)c(O)c3)C2=O)cc1 [MYC-N9] | caused degradation of c-MYC at higher concentrations | √ (A black check mark indicates efficacy of 30% to 70% or higher protein degradation) | some degradation is noted; also recorded: caused degradation of c-MYC | produces greater c-MYC degradation than 8048; also recorded: caused degradation of c-MYC | caused degradation of c-MYC at higher concentrations |
